Patent US8044051B2, “Methods and compositions for the production of high concentration alloxazine solutions” (CaridianBCT Biotechnologies, LLC, priority 2006, dated 2011)
Several values for one entry are separate records, joined by “and”; a condition that tells them apart may be missing. Equal values may be shown once.

Assays:
[1] = Concentration stability of riboflavin preparations over time (Example 4); format: physicochemical; conditions: stored at ambient temperature and pressure
Description: The concentration stability of riboflavin was measured over a period of time to determine its stability.
Various preparation of riboflavin were prepared.
Samples 1-3 were prepared by adding 10 mg riboflavin to 100 mL saline, heating at 37° C. for 30 minutes, mixing on a stir-plate for 20 minutes, and filtering through a 20 micron filter.
Sample 4 was made by adding 10 mg riboflavin to 100 mL saline, heating, and filtering through a 0.2 micron filter.
Sample 5 was prepared by adding 20 mg riboflavin to 100 mL saline, heating while mixing for 30 minutes, and filtering through a 0.2 micron filter.
Sample 6 was prepared by adding 5 mg riboflavin to 10 mL saline, heating in a water bath at 60° C. for 30 minutes, shaking vigorously for 30 seconds, and filtering through a 0.2 micron filter.
The concentration stability of riboflavin compositions are shown for each preparation. The riboflavin concentration of each experimental heat treated riboflavin sample is above that of the unheated control sample. Further, the concentration remains stable over a period of time when stored at ambient temperature and pressure.

[2] = Saturation point / solubility of riboflavin in aqueous medium at ambient temperature and pressure
Description: An amount of alloxazine is measured for combination with a solvent such as an aqueous medium or a combination of aqueous medium and a non-polar solvent.

[3] = Riboflavin concentration by absorbance after heated mixing in saline and filtration (Example 3); format: physicochemical
Description: Riboflavin (approximately 70 mg) was added to saline (approximately 200 mL) and continuously mixed on a hot plate. The container was covered, and the solution was mixed for 40 minutes. the solution was filtered through a 0.2 micron filter. The filtered solution was diluted 1:10 and its absorbance was measured.
3 mL of the riboflavin and 147 mL saline were combined. […] 30 mL of the riboflavin/saline solution was transferred to each of four 75 cm^2 flasks, which were irradiated two at a time.

Compound	concentration stability over time [1]	solubility compared to untreated riboflavin ([2]; room temperature)	concentrations of riboflavin solutions ([3]; Example 3 riboflavin solutions)	riboflavin decomposition (spectrum) ([3]; after heated mixing 40 minutes and filtration)	riboflavin concentration ([3]; approx. 70 mg in approx. 200 mL saline, mixed on hot plate 40 minutes, 0.2 micron filtered, absorbance of 1:10 dilution) [µM]	saturation point concentration of riboflavin ([2]; 22° C. and 1 atmosphere pressure, aqueous medium, untreated) [µM]
Cc1cc2nc3c(=O)[nH]c(=O)nc-3n(C[C@H](O)[C@H](O)[C@H](O)CO)c2cc1C [riboflavin derivative alpha]	stable over time	increased solubility				
Cc1cc2nc3c(=O)[nH]c(=O)nc-3n(C[C@H](O)[C@H](O)[C@H](O)CO)c2cc1C [riboflavin, 7,8-dimethyl-10-ribityl isoalloxazine]			515 µM and 528 µM	no evidence of riboflavin decomposition	540	114
